Measured values reported in patent US10745382B2 (BRISTOL-MYERS SQUIBB COMPANY, priority 2015, dated 2020).

Molecular target: T1, PD-1/PD-L1 (Homo sapiens, UniProt Q9NZQ7)
T1 construct: made in house; host or cells: HEK293T
Assay: PD-1/PD-L1 Homogenous Time-Resolved Fluorescence (HTRF) binding assay
Settings: PD-L1-His 10 nM, PD-1-Ig 20 nM; value given as range class; read-out: Range or IC50
Summary of the method: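 Compounds are tested for blocking the PD-1/PD-L1 interaction in dPBS supplemented with 0.1% BSA and 0.05% (v/v) Tween-20. Tagged proteins are detected with Eu-cryptate anti-Ig and APC anti-His at 1 and 20 nM final.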

T1 sequence (Q9NZQ7 with tags, fused parts or gaps): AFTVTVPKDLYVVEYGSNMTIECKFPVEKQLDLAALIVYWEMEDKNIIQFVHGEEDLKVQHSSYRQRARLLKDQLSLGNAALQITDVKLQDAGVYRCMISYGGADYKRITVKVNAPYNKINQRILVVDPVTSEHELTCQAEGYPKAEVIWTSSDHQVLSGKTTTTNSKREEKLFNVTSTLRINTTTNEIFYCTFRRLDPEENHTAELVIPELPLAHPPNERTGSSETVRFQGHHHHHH

Structure (SMILES)	IC50 [nM]
Cc1c(COc2cc(OCc3cncc(C#N)c3)c(CNC(C)(CO)CO)cc2Cl)cccc1-c1cccc(C(=O)N2CCOCC2)c1C [Example 4053, 5-((4-chloro-2-(((1,3-dihydroxy-2-methylpropan-2-yl)amino)methyl)-5-((2,2′-dimethyl-3′-(morpholine-4-carbonyl)-[1,1′-biphenyl]-3-yl)methoxy)phenoxy)methyl)nicotinonitrile]	10 to 100
Cc1c(COc2cc(OCc3cncc(C#N)c3)c(CN[C@@H](CO)C(=O)O)cc2Cl)cccc1-c1cccc(OCCCN2CCC(O)C2)c1C#N (stereo in doubt) [Example 3009, (S)-2-((5-chloro-4-((2′-cyano-3′-(3-((R)-3-hydroxypyrrolidin-1-yl)propoxy)-2-methyl-[1,1′-biphenyl]-3-yl)methoxy)-2-((5-cyanopyridin-3-yl)methoxy)benzyl)amino)-3-hydroxypropanoic Acid]	0.21 to 10
CNC(=O)c1cccc(-c2cccc(COc3cc(OCc4cncc(C#N)c4)c(CN4CCCC[C@H]4C(=O)O)cc3Cl)c2C)c1C [Example 4011, (S)-1-(5-chloro-2-((5-cyanopyridin-3-yl)methoxy)-4-((2,2′-dimethyl-3′-(methylcarbamoyl)-[1,1′-biphenyl]-3-yl)methoxy)benzyl)piperidine-2-carboxylic Acid]	10 to 100
Cc1c(OCCCNC[C@H](O)CO)cccc1-c1cccc(COc2cc(OCc3cncc(C#N)c3)c(CNC(C)(CO)CO)cc2Cl)c1Cl [Example 2307, (S)-5-((4-chloro-5-((2-chloro-3′-(3-((2,3-dihydroxypropyl)amino)propoxy)-2′-methyl-[1,1′-biphenyl]-3-yl)methoxy)-2-(((1,3-dihydroxy-2-methylpropan-2-yl)amino)methyl)phenoxy)methyl)nicotinonitrile]	0.21 to 10
Cc1c(COc2cc(OCc3cncc(C#N)c3)c(CN3CC[C@H](CO)[C@H](O)C3)cc2Cl)cccc1-c1cccc(OCCCN2CC[C@H](CO)[C@H](O)C2)c1C [Example 2257, 5-((4-chloro-2-(((3S,4R)-3-hydroxy-4-(hydroxymethyl)piperidin-1-yl)methyl)-5-((3′-(3-((3S,4R)-3-hydroxy-4-(hydroxymethyl)piperidin-1-yl)propoxy)-2,2′-dimethylbiphenyl-3-yl)methoxy)phenoxy)methyl)nicotinonitrile]	0.21 to 10
Cc1c(COc2cc(OCc3cncc(C#N)c3)c(CN3CCN(CCO)CC3)cc2Cl)cccc1-c1cccc(OCCCN2CCN(CCO)CC2)c1Cl [Example 2011, 5-((4-chloro-5-((2′-chloro-3′-(3-(4-(2-hydroxyethyl)piperazin-1-yl)propoxy)-2-methyl-[1,1′-biphenyl]-3-yl)methoxy)-2-((4-(2-hydroxyethyl)piperazin-1-yl)methyl)phenoxy)methyl)nicotinonitrile]	0.21 to 10

Other lines, results leading:

IC50 [nM]	Structure (SMILES)
0.21 to 10	Cc1c(COc2cc(OCc3cncc(C#N)c3)c(CN3CCCC[C@H]3C(=O)O)cc2Cl)cccc1-c1cccc(OCCCN2C[C@H]3CC[C@@H](C2)O3)c1C [Example 3046, (S)-1-(4-((3′-(3-((1R,5S)-8-oxa-3-azabicyclo[3.2.1]octan-3-yl)propoxy)-2,2′-dimethyl-[1,1′-biphenyl]-3-yl)methoxy)-5-chloro-2-((5-cyanopyridin-3-yl)methoxy)benzyl)piperidine-2-carboxylic Acid]
0.21 to 10	CO[C@@H]1CCN(CCCOc2cccc(-c3cccc(COc4cc(OCc5cncc(C#N)c5)c(CN5CCCC[C@H]5C(=O)O)cc4Cl)c3C)c2C)C1 [Example 2252, (2S)-1-(5-chloro-2-((5-cyanopyridin-3-yl)methoxy)-4-((3′-(3-((R)-3-methoxypyrrolidin-1-yl)propoxy)-2,2′-dimethylbiphenyl-3-yl)methoxy)benzyl)piperidine-2-carboxylic Acid]
100 to 2000	Cc1c(COc2cc(OCc3cncc(C#N)c3)c(CN3CCCC[C@H]3C(=O)O)cc2Cl)cccc1-c1cccc(C(=O)N(C)C)c1C [Example 4030, (S)-1-(5-chloro-2-((5-cyanopyridin-3-yl)methoxy)-4-((3′-(dimethylcarbamoyl)-2,2′-dimethyl-[1,1′-biphenyl]-3-yl)methoxy)benzyl)piperidine-2-carboxylic Acid]
